Laboratory results: ChEMBL document CHEMBL5380799, “Comprehensive Peptide Cyclization Examination Yields Optimized APP Scaffolds with Improved Affinity toward Mint2” (J Med Chem, 2023)
*1 amine or outer side, *2 acyl side, *3 side chain or, on linkers, in order; H or OH if unused. Where a SMILES comes first, the peptide text is derived from it. Bridges are numbered along the chain shown (N, C = ends). Triazole bridges read from a SMILES are 1,4-linked. [ ]: non-standard residue; d: D form. The star is where a group is joined. Perfluorobiphenyl(4,4') = Fc1c(F)c([*:1])c(F)c(F)c1-c1c(F)c(F)c([*:2])c(F)c1F; Pyridine(2,6-diCH2) = c1cc(C[*:1])nc(C[*:2])c1; Lys(N3) = [N-]=[N+]=NCCCC[C@H](N)C(=O)O; NH(CH2CH2O)2(CH2)6Cl = ClCCCCCCOCCOCCN*; Orn(N3) = [N-]=[N+]=NCCC[C@H](N)C(=O)O; pXylylene = c1cc(C[*:2])ccc1C[*:1]; S8 = C=CCCCCCC[C@](C)(N)C(=O)O; Suc = O=C(CCC(=O)[*:2])[*:1]; S5 = C=CCCC[C@](C)(N)C(=O)O; Hpra = C#CCC[C@H](N)C(=O)O; Pra = C#CC[C@H](N)C(=O)O

What was measured:
[1] = Drug uptake in human HeLa cells assessed as drug penetration incubated for 4 hrs by CA-TAMRA based CAPA assay; type: ADME, cell-based
[2] = Binding affinity to N-terminal hexahistidine-tagged recombinant human Mint2-PARM (364 to 570 residues) in presence of probe [(TAMRA)-NNG-QNGYENPTYKFFEQMQN] by fluorescense polarization assay
[3] = Metabolic stability in human plasma assessed as half life at 500 uM incubated for 480 mins by RP UPLC analysis; type: ADME, cell-free
[4] = Binding affinity to N-terminal hexahistidine-tagged recombinant human Mint2-PARM (364 to 570 residues) by ITC method
trypsin = assay: Stability of compound in PBS at pH 7.4 assessed as bovine pancreas trypsin mediated degradation by measuring half life at 100 uM measured after 120 mins by RP UPLC analysis; type: ADME, tissue-based, Bos taurus; conditions: cattle
proteinase K = proteinase K (Engyodontium album, UniProt P06873); assay: Stability of compound in PBS at pH 7.4 assessed as Parengyodontium album proteinase K mediated degradation by measuring half life at 100 uM measured after 120 mins by RP UPLC analysis; type: ADME
[5] = system: Streptomyces griseus protease; assay: Stability of compound in PBS at pH 7.4 assessed as Streptomyces griseus protease mediated degradation by measuring half life at 100 uM measured after 120 mins by RP UPLC analysis; type: ADME
Homo sapiens = species: Homo sapiens; assay: Binding affinity to N-terminal hexahistidine-tagged recombinant human Mint2-PARM (364 to 570 residues) assessed as change in entropy by ITC method
SH-SY5Y = assay: Cytotoxicity against human SH-SY5Y cells assessed as reduction in cell viability at 100 uM incubated for 48 hrs by MTT assay; type: toxicity, cell-based

proteinase K, sequence (P06873 whole entry): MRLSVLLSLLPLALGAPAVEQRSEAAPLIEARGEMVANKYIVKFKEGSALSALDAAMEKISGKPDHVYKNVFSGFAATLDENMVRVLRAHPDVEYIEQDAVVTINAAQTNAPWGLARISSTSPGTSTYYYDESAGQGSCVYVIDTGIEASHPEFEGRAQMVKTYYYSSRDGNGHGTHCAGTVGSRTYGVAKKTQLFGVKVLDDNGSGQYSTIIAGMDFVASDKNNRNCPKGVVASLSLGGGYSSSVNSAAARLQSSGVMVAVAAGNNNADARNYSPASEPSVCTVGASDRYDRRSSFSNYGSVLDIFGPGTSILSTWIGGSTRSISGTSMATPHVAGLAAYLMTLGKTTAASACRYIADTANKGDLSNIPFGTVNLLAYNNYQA

## NCCCC[C@@H]1NC(=O)[C@H](Cc2ccc(O)cc2)NC(=O)[C@@H](NC(=O)[C@@H]2CCCN2C(=O)[C@H](CC(N)=O)NC(=O)[C@H](CCC(=O)O)NC(=O)[C@H](Cc2ccc(O)cc2)NC(=O)CNC(=O)[C@H](CC(N)=O)NC(=O)CCC(=O)NCCOCCOCCCCCCCl)CCSCc2ccc(cc2)CSCC[C@@H](C(=O)N[C@H](CCC(=O)O)C(=O)O)NC(=O)[C@H](Cc2ccccc2)NC1=O
[1]
  EC50: 14.5 µM

## NCCCC[C@@H]1NC(=O)[C@H](Cc2ccc(O)cc2)NC(=O)[C@@H](NC(=O)[C@@H]2CCCN2C(=O)[C@H](CC(N)=O)NC(=O)[C@H](CCC(=O)O)NC(=O)[C@H](Cc2ccc(O)cc2)NC(=O)CNC(=O)[C@@H](N)CC(N)=O)CCSCc2ccc(cc2)CSCC[C@@H](C(=O)N[C@@H](CCC(=O)O)C(=O)O)NC(=O)[C@H](Cc2ccccc2)NC1=O
[1]
  EC50: 14.5 µM
[2]
  Ki: 0.3 µM
[3]
  half-life at 500 µM: 1.5 h
[4]
  Kd: 1.04 µM
trypsin
  half-life at 100 µM: > 2 h
Proteinase K
  half-life at 100 µM: > 2 h
[5]
  half-life at 100 µM: > 2 h

## NCCCC[C@@H]1NC(=O)[C@H](Cc2ccc(O)cc2)NC(=O)[C@@H](NC(=O)[C@@H]2CCCN2C(=O)[C@H](CC(N)=O)NC(=O)[C@H](CCC(=O)O)NC(=O)[C@H](Cc2ccc(O)cc2)NC(=O)CNC(=O)[C@@H](N)CC(N)=O)CCCn2cc(nn2)CC[C@@H](C(=O)N[C@@H](CCC(=O)O)C(=O)O)NC(=O)[C@H](Cc2ccccc2)NC1=O (H-NGYENP[Orn(N3)]YKF[Hpra]E-OH; triazole 7-11)
[2]
  Ki: 64.6 µM

## NCCCC[C@@H]1NC(=O)[C@H](Cc2ccc(O)cc2)NC(=O)[C@@H](NC(=O)[C@@H]2CCCN2C(=O)[C@H](CC(N)=O)NC(=O)[C@H](CCC(=O)O)NC(=O)[C@H](Cc2ccc(O)cc2)NC(=O)CNC(=O)[C@@H](N)CC(N)=O)CSCc2ccc(cc2)CSC[C@@H](C(=O)N[C@@H](CCC(=O)O)C(=O)O)NC(=O)[C@H](Cc2ccccc2)NC1=O (H-NGYENPCYKFCE-OH; linker 7-11 via pXylylene)
[2]
  Ki: 0.4 µM

## C[C@@]1(C(=O)N[C@@H](CCC(=O)O)C(=O)O)CCC/C=C\CCCCCC[C@](C)(NC(=O)[C@@H]2CCCN2C(=O)[C@H](CC(N)=O)NC(=O)[C@H](CCC(=O)O)NC(=O)[C@H](Cc2ccc(O)cc2)NC(=O)CNC(=O)[C@@H](N)CC(N)=O)C(=O)N[C@@H](Cc2ccc(O)cc2)C(=O)N[C@@H](CCCCN)C(=O)N[C@@H](Cc2ccccc2)C(=O)N1 (H-NGYENP[S8]YKF[S5]E-OH; staple (Z) 7-11)
[2]
  Ki: 2.3 µM

## NCCCC[C@@H]1NC(=O)[C@H](Cc2ccc(O)cc2)NC(=O)[C@@H](NC(=O)[C@@H]2CCCN2C(=O)[C@H](CC(N)=O)NC(=O)[C@H](CCC(=O)O)NC(=O)[C@H](Cc2ccc(O)cc2)NC(=O)CNC(=O)[C@@H](N)CC(N)=O)CSc2c(F)c(F)c(c(F)c2F)-c2c(F)c(F)c(c(F)c2F)SC[C@@H](C(=O)N[C@@H](CCC(=O)O)C(=O)O)NC(=O)[C@H](Cc2ccccc2)NC1=O (H-NGYENPCYKFCE-OH; linker 7-11 via Perfluorobiphenyl(4,4'))
[2]
  Ki: 0.9 µM

## NCCCC[C@H]1NC(=O)[C@@H](Cc2ccc(O)cc2)NC(=O)[C@H](NC(=O)[C@@H]2CCCN2C(=O)[C@@H](CC(N)=O)NC(=O)[C@H](CCC(=O)O)NC(=O)[C@H](Cc2ccc(O)cc2)NC(=O)CNC(=O)[C@H](N)CC(N)=O)CC(=O)NCC[C@H](C(=O)N[C@H](CCC(=O)O)C(=O)O)NC(=O)[C@@H](Cc2ccccc2)NC1=O
[2]
  Ki: 214 µM

## NCCCC[C@@H]1NC(=O)[C@H](Cc2ccc(O)cc2)NC(=O)[C@@H](NC(=O)[C@@H]2CCCN2C(=O)[C@H](CC(N)=O)NC(=O)[C@H](CCC(=O)O)NC(=O)[C@H](Cc2ccc(O)cc2)NC(=O)CNC(=O)[C@@H](N)CC(N)=O)CCCCn2cc(nn2)C[C@@H](C(=O)N[C@@H](CCC(=O)O)C(=O)O)NC(=O)[C@H](Cc2ccccc2)NC1=O (H-NGYENP[Lys(N3)]YKF[Pra]E-OH; triazole 7-11)
[1]
  EC50: 42.9 µM
[2]
  Ki: 1.2 µM
[3]
  half-life at 500 µM: 0.675 h
[4]
  Kd: 1 µM
trypsin
  half-life at 100 µM: > 2 h
Proteinase K
  half-life at 100 µM: 0.467 h
[5]
  half-life at 100 µM: 0.333 h

## NCCCC[C@@H]1NC(=O)[C@H](Cc2ccc(O)cc2)NC(=O)[C@@H](NC(=O)[C@@H]2CCCN2C(=O)[C@H](CC(N)=O)NC(=O)[C@H](CCC(=O)O)NC(=O)[C@H](Cc2ccc(O)cc2)NC(=O)CNC(=O)[C@@H](N)CC(N)=O)CSCc2cccc(n2)CSC[C@@H](C(=O)N[C@@H](CCC(=O)O)C(=O)O)NC(=O)[C@H](Cc2ccccc2)NC1=O (H-NGYENPCYKFCE-OH; linker 7-11 via Pyridine(2,6-diCH2))
[2]
  Ki: 6.5 µM

## NCCCC[C@@H]1NC(=O)[C@H](Cc2ccc(O)cc2)NC(=O)[C@@H](NC(=O)[C@@H]2CCCN2C(=O)[C@H](CC(N)=O)NC(=O)[C@H](CCC(=O)O)NC(=O)[C@H](Cc2ccc(O)cc2)NC(=O)CNC(=O)[C@@H](N)CC(N)=O)CCCCNC(=O)C[C@@H](C(=O)N[C@@H](CCC(=O)O)C(=O)O)NC(=O)[C@H](Cc2ccccc2)NC1=O (H-NGYENPKYKFDE-OH; lactam 7-11)
[1]
  EC50: 77.9 µM
[2]
  Ki: 1 µM
[3]
  half-life at 500 µM: 1.18 h
[4]
  Kd: 5.77 µM
trypsin
  half-life at 100 µM: > 2 h
Proteinase K
  half-life at 100 µM: > 2 h
[5]
  half-life at 100 µM: 0.45 h

## C[C@@]1(C(=O)N[C@@H](CCC(=O)O)C(=O)O)CCC/C=C\CCC[C@](C)(NC(=O)[C@@H]2CCCN2C(=O)[C@H](CC(N)=O)NC(=O)[C@H](CCC(=O)O)NC(=O)[C@@H](Cc2ccc(O)cc2)NC(=O)CNC(=O)[C@H](N)CC(N)=O)C(=O)N[C@@H](Cc2ccc(O)cc2)C(=O)N[C@@H](CCCCN)C(=O)N[C@@H](Cc2ccccc2)C(=O)N1
[1]
  EC50: 33.3 µM
[2]
  Ki: 0.5 µM
[3]
  half-life at 500 µM: 2.02 h
Homo sapiens
  TdeltaS: -1.44 kcal/mol
[4]
  Kd: 0.24 µM
trypsin
  half-life at 100 µM: > 2 h
Proteinase K
  half-life at 100 µM: > 2 h
[5]
  half-life at 100 µM: > 2 h

## C[C@@]1(C(=O)N[C@H](CCC(=O)O)C(=O)O)CCC/C=C\CCC[C@](C)(NC(=O)[C@@H]2CCCN2C(=O)[C@H](CC(N)=O)NC(=O)[C@H](CCC(=O)O)NC(=O)[C@H](Cc2ccc(O)cc2)NC(=O)CNC(=O)[C@H](CC(N)=O)NC(=O)CCC(=O)NCCOCCOCCCCCCCl)C(=O)N[C@@H](Cc2ccc(O)cc2)C(=O)N[C@@H](CCCCN)C(=O)N[C@@H](Cc2ccccc2)C(=O)N1
[1]
  EC50: 77.9 µM

## C[C@@]1(C(=O)N[C@@H](CCC(=O)O)C(=O)O)CCCCCC/C=C/CCC[C@](C)(NC(=O)[C@@H]2CCCN2C(=O)[C@H](CC(N)=O)NC(=O)[C@H](CCC(=O)O)NC(=O)[C@H](Cc2ccc(O)cc2)NC(=O)CNC(=O)[C@@H](N)CC(N)=O)C(=O)N[C@@H](Cc2ccc(O)cc2)C(=O)N[C@@H](CCCCN)C(=O)N[C@@H](Cc2ccccc2)C(=O)N1 (H-NGYENP[S5]YKF[S8]E-OH; staple (E) 7-11)
[2]
  Ki: 0.8 µM

## C[C@@H](O)[C@H](NC(=O)[C@@H]1CCCN1C(=O)[C@H](CC(N)=O)NC(=O)[C@H](CCC(=O)O)NC(=O)[C@H](Cc1ccc(O)cc1)NC(=O)CNC(=O)[C@H](CC(N)=O)NC(=O)CCC(=O)NCCOCCOCCCCCCCl)C(=O)N[C@@H](Cc1ccc(O)cc1)C(=O)N[C@@H](CCCCN)C(=O)N[C@@H](Cc1ccccc1)C(=O)N[C@@H](Cc1ccccc1)C(=O)N[C@@H](CCC(=O)O)C(=O)O ({NH(CH2CH2O)2(CH2)6Cl-Suc}-NGYENPTYKFFE-OH)
[1]
  EC50: 42 µM

## H-NGYENPTYKFFE-OH
SH-SY5Y
  Activity: 20%
[2]
  Ki: 4 µM
trypsin
  half-life at 100 µM: 0.43 h

## NCCCC[C@@H]1NC(=O)[C@H](Cc2ccc(O)cc2)NC(=O)[C@@H](NC(=O)[C@H]2CCCN2C(=O)[C@H](CC(N)=O)NC(=O)[C@@H](CCC(=O)O)NC(=O)[C@@H](Cc2ccc(O)cc2)NC(=O)CNC(=O)[C@@H](N)CC(N)=O)CCSCc2ccc(cc2)CSCC[C@@H](C(=O)N[C@@H](CCC(=O)O)C(=O)O)NC(=O)[C@H](Cc2ccccc2)NC1=O
Homo sapiens
  TdeltaS: -2.03 kcal/mol

## NCCCC[C@H](NC(=O)[C@H](Cc1ccc(O)cc1)NC(=O)[C@H](CS)NC(=O)[C@@H]1CCCN1C(=O)[C@H](CC(N)=O)NC(=O)[C@H](CCC(=O)O)NC(=O)[C@H](Cc1ccc(O)cc1)NC(=O)CNC(=O)[C@@H](N)CC(N)=O)C(=O)N[C@@H](Cc1ccccc1)C(=O)N[C@@H](CS)C(=O)N[C@@H](CCC(=O)O)C(=O)O (H-NGYENPCYKFCE-OH)
[2]
  Ki: 21.4 µM
